Reference: patent US7960380B2, “Non-anilinic derivatives of isothiazol-3(2H)-one 1,1-dioxides as liver X receptor modulators” (AstraZeneca AB, priority 2005, dated 2011)

Experiments:
[1] = biological target: T1, human LXRalpha ligand binding domain (GAL4 fusion) (Homo sapiens, UniProt Q13133); test: Transactivation (reporter gene) assay in U2/OS cells (LXRalpha); format: cell-based; details: LXRα, GAL4-LXR LBD luciferase reporter
T1 construct: human LXRalpha (amino acid 205-447); expressed in transfected cells; host or cells: U2/OS osteosarcoma cells (electroporated with pSGGAL-LXRalpha)
T1 sequence (Q13133 205-447): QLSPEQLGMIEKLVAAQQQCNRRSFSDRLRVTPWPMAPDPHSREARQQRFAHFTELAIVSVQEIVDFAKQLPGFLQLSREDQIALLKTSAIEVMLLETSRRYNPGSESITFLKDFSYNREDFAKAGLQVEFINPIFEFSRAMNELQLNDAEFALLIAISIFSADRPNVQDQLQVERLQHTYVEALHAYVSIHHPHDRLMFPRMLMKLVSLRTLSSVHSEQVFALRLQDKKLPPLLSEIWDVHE
Method: Expression vectors were prepared by inserting the ligand binding domain cDNA (complementary DNA) of human LXRalpha (amino acid 205-447) and LXRbeta (amino acid 216-461) in frame with, 3′ to the yeast GAL4 transcription factor DNA binding domain and the nuclear localization signal from the T-antigen of Polyoma Virus in the eucaryotic expression vector pSG5 (Stratagene). The resulting expression vectors pSGGAL-LXRalpha and pSGGAL-LXRbeta were used in cotransfection experiments together with the pGL3 luciferase reporter plasmid containing a minimal SV40 promoter (Promega) and five copies of the UAS GAL4 recognition site. 2.5 μg pSGGAL-LXRalpha or beta were mixed with 25 μg pGL3 5×UAS and 22.5 μg pBluscript (Stratagene) in 0.95 mL ice cold PBS containing approx. 4-9 milj. U2/OS osteosarcoma cells. After a five minute incubation on ice the cell/DNA mixture was electroporated in 0.4 cm cuvettes at 960 μF, 230 V using a BioRad electroporator and diluted to 0.32 milj cells/mL in complete DMEM [Dulbecco's Modified Eagle Medium w/o phenol red, (Gibco 11880-028) including 10% FBS (Foetal Bovine Serum), 1% PEST (Penicillin Streptomycin), 20 mM Hepes, 2 mM L-Glutamine and 0.36% Glucose Gibco 31966-021] medium. […] Luciferase activity was measured as Luminescence in the Wallac Victor reader after 15 min. incubation at room temperature. […]

[2] = biological target: T2, human LXRalpha Ligand Binding Domain (amino acid 205-447) (Homo sapiens, UniProt Q13133); test: Co-activator recruitment assay (LXRalpha); format: biochemical; details: LXRα; SRC-1 peptide recruitment, time-resolved fluorescence; read-out: EC50 for LXRα in the coactivator recruitment assay
T2 construct: human LXRalpha (amino acid 205-447); made in house; host or cells: E. coli
T2 sequence (Q13133 205-447): T1 sequence (Q13133 205-447)
Description: The Ligand Binding Domain (LBD) of human LXRalpha (amino acid 205-447) and LXRbeta (amino acid 216-461) was produced by recombinant techniques in E coli. A fragment of the human Steroid Receptor Co-Activator-1 (SRC-1) was produced as a synthetic peptide. An anti-6×His-antibody coupled with Europium (Eu^3+) was used to recognize the His-tag on the LXR-LBD and Allophycocyanin (APC) coupled to streptavidin was used to recognize the biotinylated SRC-1. Agonist binding to LXRalpha or LXRbeta enhances the affinity of LXR towards SRC-1 and thereby brings Eu^3+ and APC in close proximity. Eu^3+ is excited at 337 nm and emitts light at 620 nm. This emission, when in close proximity, excites APC to emit light at 665 nm.
Compounds (10 mM) in DMSO were diluted (1/3) in DMSO in 10 concentrations. This dilution plates were further diluted in buffer {20 mM [Tris(hydroxymethyl)aminomethane] pH 7.5, 0.125% CHAPS {3-[(3-Cholamidopropyl)dimethylammonio]-1-propanesulfonate}, 2 mM DTT (Dithiothreitol) and 0.05% BSA (Bovine Serum Albumin)} in order to reduce DMSO concentration, 0.5 μl to 13.5 μl. To this, 6 μl assay mix was added, giving an maximal assay concentration of 83 μM, and the plates (384-well V-groove plates) were incubated at room temperature for 60 to 80 min. […] Time-resolved fluorescence readings were done in a Wallac Victor reader at 665 nm followed by reading at 615 nm. […]

EC50 [1] | EC50 [2] | SMILES
270 nM |  | CCCCN1C(=O)C(NCCCOc2cccc(NC(C)=O)c2)=C(c2ccccc2)S1(=O)=O [Example 7, N-(3-{3-[(2-Butyl-1,1-dioxido-3-oxo-5-phenyl-2,3-dihydroisothiazol-4-yl)amino]propoxy}phenyl)acetamide]
 | 1420 nM | CC(C)N1C(=O)C(NC2CCN(CCC#N)CC2)=C(c2ccccc2)S1(=O)=O [Example 10, 3-{4-[(2-Isopropyl-1,1-dioxido-3-oxo-5-phenyl-2,3-dihydroisothiazol-4-yl)amino]piperidin-1-yl}propanenitrile]
 | 580 nM | CCCCCCNC1=C(c2ccccc2)S(=O)(=O)N(CCCC)C1=O [Example 6, 2-Butyl-4-(hexylamino)-5-phenylisothiazol-3(2H)-one 1,1-dioxide]
1360 nM |  | O=C1C(NCCCCc2ccccc2)=C(c2ccccc2)S(=O)(=O)N1C1CCCC1 [Example 2, 2-Cyclopentyl-5-phenyl-4-[(4-phenylbutyl)amino]isothiazol-3(2H)-one 1,1-dioxide]
